The text below walks through data of patent publication US20200102295A1, “NITROCATECHOL DERIVATIVES AS COMT INHIBITORS” (BIAL - PORTELA & CA, S.A., priority 2005, published 2020).

In one data set the target is T1, rat liver COMT (Rattus norvegicus, UniProt P22734).
T1 construct: the organs were immediately removed and homogenised in 5 mM phosphate buffer of pH 7.8; from tissue; host or cells: rat liver homogenate (Wistar rats, dosed orally; ex vivo activity)
T1 sequence (P22734 1-264): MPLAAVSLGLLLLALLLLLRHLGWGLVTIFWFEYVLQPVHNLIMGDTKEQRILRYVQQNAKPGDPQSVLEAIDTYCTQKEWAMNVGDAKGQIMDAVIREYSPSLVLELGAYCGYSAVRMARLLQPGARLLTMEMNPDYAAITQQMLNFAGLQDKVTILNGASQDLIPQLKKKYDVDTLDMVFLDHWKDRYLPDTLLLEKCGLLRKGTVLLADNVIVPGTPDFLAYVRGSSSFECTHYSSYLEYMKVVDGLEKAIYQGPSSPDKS
Description: Rat liver COMT activity after oral administration of test compounds. The class given is in vivo. As to conditions: for Rat Liver COMT activity (% control): 3 mg/kg oral.

For the next data set, the target named is T2, mouse liver COMT (Mus musculus, UniProt O88587).
T2 construct: Aliquots of 0.5 ml of liver homogenates were preincubated; from tissue; host or cells: mouse liver homogenate (NMRI mice, dosed orally; ex vivo activity)
T2 sequence (O88587 1-265): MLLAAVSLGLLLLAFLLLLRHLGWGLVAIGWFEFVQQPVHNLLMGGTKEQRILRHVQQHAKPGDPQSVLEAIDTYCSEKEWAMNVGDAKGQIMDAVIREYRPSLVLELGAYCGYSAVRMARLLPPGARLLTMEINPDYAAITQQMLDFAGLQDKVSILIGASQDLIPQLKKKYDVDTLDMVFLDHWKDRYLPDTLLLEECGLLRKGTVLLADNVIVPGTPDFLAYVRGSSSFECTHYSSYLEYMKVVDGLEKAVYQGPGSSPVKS
Briefly: Mouse liver COMT activity after oral administration of test compounds. It counts as in vivo. As to conditions: 3 mg/kg oral, 3 h after administration.

Data set [1] relates to plasma levels of L-DOPA and 3-O-methyl-L-DOPA (3-OMD). Briefly: Levels of L-DOPA and 3-O-methyl-L-DOPA in plasma of rats treated with L-DOPA plus benserazide. It counts as in vivo, rat. Particulars: 3 mg/kg oral, 2 h after administration; for L-DOPA % increase (plasma level, % control) / 3-OMD % reduction (plasma level, % control): L-DOPA plus benserazide 1 h before plasma collection; for 3-OMD % reduction (plasma level, % control): given with minus sign; for L-Dopa/3-OMD: plasma ratio.

Data set [2] concerns Neuro 2A mouse neuroblastoma cells. Briefly: Cell toxicity: Neuro 2A cell viability (calcein-AM). It counts as cell-based. Particulars: Neuro 2A cells, 30 μM, 24 h exposure.

Turning to `O=[N+]([O-])c1cc(-c2nc(-c3ccc[n+]([O-])c3C(F)(F)F)no2)cc(O)c1O` [Compound 42, 3-Nitro-5-[3-(1-oxy-2-trifluoromethyl-pyridin-3-yl)-[1,2,4]oxadiazol-5-yl]-benzene-1,2-diol], the “Rat Liver COMT activity (% control)” value on rat liver COMT (1 h after administration) was determined as 3.6 % control; at rat liver COMT (3 h after administration) it was 6.1 % control; on rat liver COMT (6 h after administration) it was 12.3 % control; at rat liver COMT (9 h after administration), 30.9 % control. Further, the “COMT activity (% of control)” value on mouse liver COMT was 9.4 % of control. In data set [1], the “L-DOPA % increase (plasma level, % control)” value (shortened to “L-DOPA % increase”) was determined as 30.7%. Besides, in data set [1], the “3-OMD % reduction (plasma level, % control)” value (“3-OMD % reduction” below) was −43.4%. Further, in data set [1], the L-Dopa/3-OMD was determined as 2.3. Moreover, the “% of viable cells” value in data set [2] is listed as 96.4%.
In the case of `O=[N+]([O-])c1cc(-c2nc(Cc3ccc(C(F)(F)F)[n+]([O-])c3)no2)cc(O)c1O` [Compound 43, 3-Nitro-5-[3-(1′-oxy-6-trifluoromethyl-pyridine-3-ylmethyl)-[1,2,4]oxadiazol-5-yl]-benzene-1,2-diol], the “Rat Liver COMT activity (% control)” value at rat liver COMT (1 h after administration) was 16.1 % control; at rat liver COMT (3 h after administration) it was 30.6 % control; at rat liver COMT (6 h after administration) it was 64.3 % control; at rat liver COMT (9 h after administration) it was 77.9 % control. At mouse liver COMT, the “COMT activity (% of control)” value was 27.2 % of control. For the same compound, the “L-DOPA % increase” value in data set [1] is reported as 74.9%. In data set [1], the “3-OMD % reduction” value is recorded as −48.3%. For the same compound, the L-Dopa/3-OMD in data set [1] is on record as 3.4. For the same compound, in data set [2], the “% of viable cells” value is 101.5%.
On to `Cc1c(Cl)c(C)[n+]([O-])c(Br)c1-c1noc(-c2cc(O)c(O)c([N+](=O)[O-])c2)n1` [Compound 47, 5-[3-(2-Bromo-5-chloro-4,6-dimethyl-1-oxy-pyridin-3-yl)-[1,2,4]oxadiazol-5-yl]-3-nitrobenzene-1,2-diol], for which the “Rat Liver COMT activity (% control)” value on rat liver COMT (1 h after administration) stood at 10.6 % control; on rat liver COMT (3 h after administration), 4.0 % control; on rat liver COMT (6 h after administration) it was 3.8 % control; at rat liver COMT (9 h after administration), 8.2 % control. Besides, on mouse liver COMT, the “COMT activity (% of control)” value was 25.2 % of control. In addition, the “L-DOPA % increase” value in data set [1] is on record as 102.9%. Also, the “3-OMD % reduction” value in data set [1] was −58.5%. Moreover, the L-Dopa/3-OMD in data set [1] was determined as 4.9. Further, in data set [2], the “% of viable cells” value is 81.2%.
In the case of `Cc1ccc(C(=O)c2cc(O)c(O)c([N+](=O)[O-])c2)cc1` [Tolcapone, 3,4-dihydroxy-4′ -methyl-5-nitrobenzophenone, reference compound], the “Rat Liver COMT activity (% control)” value on rat liver COMT (1 h after administration) is recorded as 18.3 % control; at rat liver COMT (3 h after administration), 28.6 % control; at rat liver COMT (6 h after administration) it was 56.8 % control; at rat liver COMT (9 h after administration) it was 83.9 % control. The inhibition at 3 mg/kg on rat liver COMT (rat, po, read-out: COMT inhibition nine hours after administration) was approximately 16%. The “COMT activity (% of control)” value at mouse liver COMT is given as 13.9 % of control. Further, the “L-DOPA % increase” value in data set [1] came out at 202.4%. Also, in data set [1], the “3-OMD % reduction” value is −89.0%. The L-Dopa/3-OMD in data set [1] is 27.6. Besides, the “% of viable cells” value in data set [2] is 27.2%.
